Tests used:
[1] = molecular target: T1, Thyroid hormone receptor alpha (Homo sapiens, UniProt P10827); experiment: Displacement of [125I]-L-3,5,3'-triiodothyronine from human TRalpha expressed in human Hela cell lysate measured after overnight incubation by competition binding assays; type: cell-free
T1 sequence (P10827 whole entry): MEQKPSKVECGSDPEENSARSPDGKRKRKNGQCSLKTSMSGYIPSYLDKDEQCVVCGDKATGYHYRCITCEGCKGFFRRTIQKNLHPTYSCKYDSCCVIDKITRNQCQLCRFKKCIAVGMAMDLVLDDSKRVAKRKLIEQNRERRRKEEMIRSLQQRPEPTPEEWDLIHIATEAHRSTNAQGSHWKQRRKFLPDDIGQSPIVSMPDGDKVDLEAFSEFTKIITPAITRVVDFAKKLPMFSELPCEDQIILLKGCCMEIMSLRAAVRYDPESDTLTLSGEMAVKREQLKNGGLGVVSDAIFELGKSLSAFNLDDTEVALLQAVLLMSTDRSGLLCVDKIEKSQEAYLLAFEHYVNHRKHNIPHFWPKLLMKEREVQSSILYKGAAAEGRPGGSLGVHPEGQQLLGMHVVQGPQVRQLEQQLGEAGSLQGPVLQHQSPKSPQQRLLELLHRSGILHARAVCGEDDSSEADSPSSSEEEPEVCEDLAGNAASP

[2] = molecular target: T2, Thyroid hormone receptor beta (Homo sapiens, UniProt P10828); experiment: Displacement of [125I]-L-3,5,3'-triiodothyronine from human TRbeta expressed in human Hela cell lysate measured after overnight incubation by competition binding assays; type: cell-free
T2 sequence (P10828 whole entry): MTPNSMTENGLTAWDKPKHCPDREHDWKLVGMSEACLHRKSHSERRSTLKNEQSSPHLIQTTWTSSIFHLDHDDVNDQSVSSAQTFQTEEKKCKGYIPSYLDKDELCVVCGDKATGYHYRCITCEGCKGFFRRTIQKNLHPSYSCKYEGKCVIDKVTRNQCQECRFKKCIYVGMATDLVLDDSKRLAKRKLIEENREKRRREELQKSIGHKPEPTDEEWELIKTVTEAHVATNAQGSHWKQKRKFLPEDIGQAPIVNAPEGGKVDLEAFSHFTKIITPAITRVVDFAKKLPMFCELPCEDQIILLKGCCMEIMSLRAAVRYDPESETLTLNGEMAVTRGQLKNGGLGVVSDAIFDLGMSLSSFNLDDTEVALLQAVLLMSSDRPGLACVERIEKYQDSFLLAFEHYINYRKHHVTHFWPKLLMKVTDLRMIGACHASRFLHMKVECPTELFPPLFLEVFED

Rattus norvegicus [3] = experiment: Decrease in triglyceride level in fructose-fed Sprague-Dawley rat model of dyslipidemia at 3 mg/kg, po qd through oral gavage by size exclusion chromatography (Rvb =296 +/- 20 mg/dL); type: functional
Rattus norvegicus [4] = experiment: Increase in HDL level in fructose-fed Sprague-Dawley rat model of dyslipidemia at 10 mg/kg, po qd through oral gavage by size exclusion chromatography relative to vehicle-treated control; type: functional
Rattus norvegicus [5] = experiment: Decrease in triglyceride level in fructose-fed Sprague-Dawley rat model of dyslipidemia at 10 mg/kg, po qd through oral gavage by size exclusion chromatography (Rvb =296 +/- 20 mg/dL); type: functional
Rattus norvegicus [6] = experiment: Increase in HDL level in fructose-fed Sprague-Dawley rat model of dyslipidemia at 0.1 mg/kg, po qd through oral gavage by size exclusion chromatography relative to vehicle-treated control; type: functional
Rattus norvegicus [7] = experiment: Decrease in triglyceride level in fructose-fed Sprague-Dawley rat model of dyslipidemia at 0.3 mg/kg, po qd through oral gavage by size exclusion chromatography (Rvb =296 +/- 20 mg/dL); type: functional
Rattus norvegicus [8] = experiment: Decrease in triglyceride level in fructose-fed Sprague-Dawley rat model of dyslipidemia at 0.1 mg/kg, po qd through oral gavage by size exclusion chromatography (Rvb =296 +/- 20 mg/dL); type: functional
Rattus norvegicus [9] = experiment: Increase in HDL level in fructose-fed Sprague-Dawley rat model of dyslipidemia at 1 mg/kg, po qd through oral gavage by size exclusion chromatography relative to vehicle-treated control; type: functional
Rattus norvegicus [10] = experiment: Toxicity in fructose-fed Sprague-Dawley rat model of dyslipidemia assessed as effect on food intake at 0.1 to 10 mg/kg, po qd through oral gavage; type: organism-based; design: dose 0.1-10 mg/kg, route oral; details: in vivo
Rattus norvegicus [11] = experiment: Increase in HDL level in fructose-fed Sprague-Dawley rat model of dyslipidemia at 0.3 mg/kg, po qd through oral gavage by size exclusion chromatography relative to vehicle-treated control; type: functional
Rattus norvegicus [12] = experiment: Increase in HDL level in fructose-fed Sprague-Dawley rat model of dyslipidemia at 3 mg/kg, po qd through oral gavage by size exclusion chromatography relative to vehicle-treated control; type: functional
Rattus norvegicus [13] = experiment: Decrease in triglyceride level in fructose-fed Sprague-Dawley rat model of dyslipidemia at 1 mg/kg, po qd through oral gavage by size exclusion chromatography (Rvb =296 +/- 20 mg/dL); type: functional
[14] = molecular target: T2, Thyroid hormone receptor beta; experiment: Agonist activity at TRbeta (unknown origin) expressed in human HuH7 cells after 24 hrs by Gal4 CTF cell-based assay; design: species or system Huh-7
[15] = molecular target: T1, Thyroid hormone receptor alpha; experiment: Agonist activity at TRalpha (unknown origin) expressed in human HuH7 cells after 24 hrs by Gal4 CTF cell-based assay; design: species or system Huh-7

| SMILES | Ki [1] [nM] | Ki [2] [nM] | also measured |
| --- | --- | --- | --- |
| CC(C)c1cc(Cn2ccc3cc(OCC(=O)O)ccc32)ccc1O | 13.5 | 1.04 |  |
| Cc1cc2cc(OCC(=O)O)ccc2n1Cc1ccc(O)c(C(C)C)c1 | 16.3 | 1.12 |  |
| Cc1cn(Cc2ccc(O)c(C(C)C)c2)c2ccc(OCC(=O)O)cc12 | 7.74 | 0.38 | Activity (Rattus norvegicus [3]): 149 mg/dL; Activity (Rattus norvegicus [4]): 35%; Activity (Rattus norvegicus [5]): 106 mg/dL; Activity (Rattus norvegicus [6]): 22%; Activity (Rattus norvegicus [7]): 214 mg/dL; Activity (Rattus norvegicus [8]): 204 mg/dL; Activity (Rattus norvegicus [9]): 55%; Activity (Rattus norvegicus [10]): Non-toxic; Activity (Rattus norvegicus [11]): 39%; Activity (Rattus norvegicus [12]): 42%; Activity (Rattus norvegicus [13]): 177 mg/dL |
| Cc1cn(Cc2ccc(O)c(C(C)(C)C)c2)c2ccc(OCC(=O)O)cc12 | 9.98 | 0.3 |  |
| Cc1cn(Cc2ccc(O)c(Cc3ccccc3)c2)c2ccc(OCC(=O)O)cc12 | 36.5 | 0.54 | EC50 [14]: 406 nM; EC50 [15]: 2470 nM |
| Cc1cn(Cc2ccc(O)c(C3CCCC3)c2)c2ccc(OCC(=O)O)cc12 | 32.3 | 0.64 |  |
| Cc1cn(Cc2ccc(O)c(CC3CCCCC3)c2)c2ccc(OCC(=O)O)cc12 | 46.6 | 1.11 |  |
| Cc1cn(Cc2ccc(O)c(-c3ccccc3)c2)c2ccc(OCC(=O)O)cc12 | 89.9 | 3.14 |  |
| Cc1cn(Cc2ccc(O)c(C3CCCCC3)c2)c2ccc(OCC(=O)O)cc12 | 200 | 8.04 |  |

Now those with a lower Ki [1], led by results:

| Ki [1] [nM] | Ki [2] [nM] | SMILES | also measured |
| --- | --- | --- | --- |
| 1.09 | 0.26 | Cc1cc(OCC(=O)O)cc2ccn(Cc3ccc(O)c(C(C)C)c3)c12 |  |
| 0.35 | 0.07 | CC(C)c1cc(Cn2ccc3cc(OCC(=O)O)cc(Cl)c32)ccc1O |  |
| 2.05 | 0.14 | Cc1cc(OCC(=O)O)cc2cc(C)n(Cc3ccc(O)c(C(C)C)c3)c12 |  |
| 0.38 | 0.04 | Cc1cc2cc(OCC(=O)O)cc(Cl)c2n1Cc1ccc(O)c(C(C)C)c1 |  |
| 2.77 | 0.18 | Cc1cn(Cc2ccc(O)c(C(C)C)c2)c2c(C)cc(OCC(=O)O)cc12 |  |
| 0.51 | 0.09 | Cc1cn(Cc2ccc(O)c(C(C)C)c2)c2c(Cl)cc(OCC(=O)O)cc12 |  |
